Patent US9469637B2, “Nitrogenated heterocyclic compound” (Takeda Pharmaceutical Company Limited, priority 2012, dated 2016)

What follows are compounds tested against T1, Human PDE2A3 enzyme (Homo sapiens, UniProt O00408) (assay: PDE2A3 enzyme inhibition, SPA (Scintillation Proximity Assay)). Conditions: 1 μM compound, substrate [3H] cGMP, read-out: Inhibition Rate (%) (1 μM).
T1 construct: generated from Sf9 cells transfected with the full-length gene; His-tag; made in house; host or cells: Sf9 insect cells
Format: biochemical
Procedure: Human PDE2A3 enzyme was generated from Sf9 cells transfected with the full-length gene. The extracted enzyme from Sf9 cells was purified by His-tag affinity column and gel filtration. The enzyme was stored at −70° C. until use. PDE activity was measured using a SPA (Scintillation Proximity Assay) (GE Healthcare). To evaluate the inhibitory activity, 10 μl of serial diluted compounds were incubated with 20 μl of PDE enzyme in assay buffer (50 mM HEPES-NaOH, 8.3 mM MgCl2, 1.7 mM EGTA, 0.1% BSA (pH 7.4)) for 30 min. at room temperature. Final concentration of DMSO in the assay was 1 percent as compounds were tested in duplicate in 96-well half-area plates (Corning) or 384-well OptiPlate (PerkinElmer). To start the reaction, 10 μl of substrate [^3H] cGMP (77 nM, PerkinElmer) was added for a final assay volume of 40 μl. After 60 min incubation at room temperature, 20 μl of 20 mg/ml yttrium SPA beads containing Zinc sulphate was added to terminate the PDE reaction. […] Inhibition rate was calculated on the basis of 0% control wells with enzyme and DMSO, and 100% control wells without enzyme.

T1 sequence (O00408 whole entry): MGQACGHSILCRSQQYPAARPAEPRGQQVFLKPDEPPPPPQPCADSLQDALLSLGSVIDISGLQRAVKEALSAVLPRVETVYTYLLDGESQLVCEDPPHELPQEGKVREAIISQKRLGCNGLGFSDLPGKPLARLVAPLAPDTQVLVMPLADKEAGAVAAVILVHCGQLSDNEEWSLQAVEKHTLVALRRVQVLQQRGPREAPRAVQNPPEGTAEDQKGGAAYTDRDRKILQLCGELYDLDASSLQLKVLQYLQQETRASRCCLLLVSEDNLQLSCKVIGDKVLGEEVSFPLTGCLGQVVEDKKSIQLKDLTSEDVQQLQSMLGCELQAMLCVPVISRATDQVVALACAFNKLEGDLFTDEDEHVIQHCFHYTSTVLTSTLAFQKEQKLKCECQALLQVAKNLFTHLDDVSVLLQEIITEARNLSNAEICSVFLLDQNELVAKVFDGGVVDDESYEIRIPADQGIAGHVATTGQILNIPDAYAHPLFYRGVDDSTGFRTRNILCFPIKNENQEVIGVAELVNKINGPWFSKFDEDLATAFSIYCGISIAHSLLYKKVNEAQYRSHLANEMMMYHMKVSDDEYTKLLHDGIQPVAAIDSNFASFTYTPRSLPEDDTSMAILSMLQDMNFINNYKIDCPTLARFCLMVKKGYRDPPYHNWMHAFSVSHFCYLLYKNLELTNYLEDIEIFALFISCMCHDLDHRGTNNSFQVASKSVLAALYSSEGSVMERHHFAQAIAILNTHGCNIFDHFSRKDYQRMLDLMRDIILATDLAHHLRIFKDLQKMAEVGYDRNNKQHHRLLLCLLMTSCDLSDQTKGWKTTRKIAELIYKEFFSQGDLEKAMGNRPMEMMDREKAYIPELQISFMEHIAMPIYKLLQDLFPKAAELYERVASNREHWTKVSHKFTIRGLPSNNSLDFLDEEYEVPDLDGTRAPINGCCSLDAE

| inhibition at 1 µM [%] | Compound |
| --- | --- |
| 98 | Cc1cnc2c(c1)NC(=O)CN2C(=O)NC(c1ccc(OC(F)(F)F)c(F)c1)C(C)(C)O (stereo not drawn) [Example 273, Optically active N-(1-(3-fluoro-4-(trifluoromethoxy)phenyl)-2-hydroxy-2-methylpropyl)-7-methyl-2-oxo-2,3-dihydropyrido[2,3-b]pyrazine-4(1H)-carboxamide] |
| 100 | COc1nc2c(cc1C)NC(=O)CN2C(=O)N[C@@H](c1ccc(OC(F)(F)F)cc1)C(C)(C)O [Example 261, N-((1S)-2-hydroxy-2-methyl-1-(4-(trifluoromethoxy)phenyl)propyl)-6-methoxy-7-methyl-2-oxo-2,3-dihydropyrido[2,3-b]pyrazine-4(1H)-carboxamide] |
| 98 | COCC(NC(=O)N1CC(=O)Nc2cc(C)cnc21)c1ccc(-n2cccn2)c(F)c1 (stereo not drawn) [Example 143, N-(1-(3-fluoro-4-(1H-pyrazol-1-yl)phenyl)-2-methoxyethyl)-7-methyl-2-oxo-2,3-dihydropyrido[2,3-b]pyrazine-4(1H)-carboxamide] |
| 99 | COC[C@@H](NC(=O)N1CC(=O)Nc2ccc(-n3cccn3)nc21)c1ccc(OC(F)(F)F)cc1 [Example 130, N-((1S)-2-methoxy-1-(4-(trifluoromethoxy)phenyl)ethyl)-2-oxo-6-(1H-pyrazol-1-yl)-2,3-dihydropyrido[2,3-b]pyrazine-4(1H)-carboxamide] |
| 93 | CCC(NC(=O)N1CC(=O)Nc2ccc(OC)nc21)c1ccc(OC(F)(F)F)cc1 (stereo not drawn) [Example 52, 6-methoxy-2-oxo-N-(1-(4-(trifluoromethoxy)phenyl)propyl)-2,3-dihydropyrido[2,3-b]pyrazine-4(1H)-carboxamide] |
| 100 | CC(C)(O)C(NC(=O)N1CC(=O)Nc2cc(C3CC3)cnc21)c1ccc(C(F)(F)F)cc1 (stereo not drawn) [Example 266, Optically active 7-cyclopropyl-N-(2-hydroxy-2-methyl-1-(4-(trifluoromethyl)phenyl)propyl)-2-oxo-2,3-dihydropyrido[2,3-b]pyrazine-4(1H)-carboxamide] |
| 99 | COc1cnc2c(c1)NC(=O)CN2C(=O)NC(c1ccc(C(F)(F)F)cc1)C(C)(C)O (stereo not drawn) [Example 268, Optically active N-(2-hydroxy-2-methyl-1-(4-(trifluoromethyl)phenyl)propyl)-7-methoxy-2-oxo-2,3-dihydropyrido[2,3-b]pyrazine-4(1H)-carboxamide] |
| 97 | Cc1cnc2c(c1)NC(=O)CN2C(=O)NC1(c2ccc(OC(F)(F)F)cc2)CC1 [Example 152, 7-methyl-2-oxo-N-(1-(4-(trifluoromethoxy)phenyl)cyclopropyl)-2,3-dihydropyrido[2,3-b]pyrazine-4(1H)-carboxamide] |
| 97 | CCC(NC(=O)N1CC(=O)Nc2cc(C)cnc21)c1ccc(-n2cccn2)s1 (stereo not drawn) [Example 162, 7-methyl-2-oxo-N-(1-(5-(1H-pyrazol-1-yl)-2-thienyl)propyl)-2,3-dihydropyrido[2,3-b]pyrazine-4(1H)-carboxamide] |
| 97 | COCC(NC(=O)N1CC(=O)Nc2cc(C)cnc21)c1ccc(-n2cccn2)cc1 (stereo not drawn) [Example 134, N-(2-methoxy-1-(4-(H-pyrazol-1-yl)phenyl)ethyl)-7-methyl-2-oxo-2,3-dihydropyrido[2,3-b]pyrazine-4(1H)-carboxamide] |
| 100 | Cc1cnc2c(c1)NC(=O)CN2C(=O)NC(c1ccc(OC(F)(F)F)cc1)C1CCCO1 (stereo not drawn) [Example 200, 7-methyl-2-oxo-N-(tetrahydrofuran-2-yl(4-(trifluoromethoxy)phenyl)methyl)-2,3-dihydropyrido[2,3-b]pyrazine-4(1H)-carboxamide] |
| 99 | COCC(NC(=O)N1CC(=O)Nc2ccc(-c3ccn(C)n3)nc21)c1ccc(OC(F)(F)F)cc1 (stereo not drawn) [Example 222, N-(2-methoxy-1-(4-(trifluoromethoxy)phenyl)ethyl)-6-(1-methyl-1H-pyrazol-3-yl)-2-oxo-2,3-dihydropyrido[2,3-b]pyrazine-4(1H)-carboxamide] |
| 99 | COC[C@@H](NC(=O)N1CC(=O)Nc2ccc(-n3cccn3)nc21)c1ccc(OC(F)(F)F)c(F)c1 [Example 117, N-((1S)-1-(3-fluoro-4-(trifluoromethoxy)phenyl)-2-methoxyethyl)-2-oxo-6-(1H-pyrazol-1-yl)-2,3-dihydropyrido[2,3-b]pyrazine-4(1H)-carboxamide] |
| 100 | CC(C)(O)C(NC(=O)N1CC(=O)Nc2cc(C3CC3)cnc21)c1ccc(OC(F)(F)F)c(F)c1 (stereo not drawn) [Example 76, Optically active 7-cyclopropyl-N-(1-(3-fluoro-4-(trifluoromethoxy)phenyl)-2-hydroxy-2-methylpropyl)-2-oxo-2,3-dihydropyrido[2,3-b]pyrazine-4(1H)-carboxamide] |
| 100 | COc1cc2c(nc1C)N(C(=O)N[C@@H](c1ccc(OC(F)(F)F)cc1)C(C)(C)O)CC(=O)N2 [Example 253, N-((1S)-2-hydroxy-2-methyl-1-(4-(trifluoromethoxy)phenyl)propyl)-7-methoxy-6-methyl-2-oxo-2,3-dihydropyrido[2,3-b]pyrazine-4(1H)-carboxamide] |
